BindingDB's records for doi:10.1016/j.ejmech.2020.112994 (North-West University, 2021)

Test: Inhibition of EGFR in human A-431 cells assessed as antiproliferative activity incubated for 48 hrs by MTS method

Work on `COc1cc2c(Nc3ccc(Br)cc3F)ncnc2cc1OCC1CCN(C(=O)Cn2cncc2[N+](=O)[O-])CC1` yielded an IC50 of 1640 nM.
